From patent publication US7276492B2, “Use of ACE inhibitors for treatment of patients suffering from behavioral disorders” (priority 2000, dated 2007)

Assays:
central nervous system = conditions: of the persons treated; cited from earlier work
[1] = tested on: temper, rage and outburst behavior disorder (TROBD); test: Example 1: lisinopril regimen in a patient suffering from TROBD; type: in vivo, human; conditions: for relief of TROBD by prior treatments: prior treatments of the same patient, before lisinopril
Text: The TROBD was an endogenous behavioral disorder. […] When confined to their room, the patient would act out with banging and stomping. Episodes were accompanied by physiological changes including dilation of pupils, expressionless face and a rise in blood pressure.
With lisinopril medication as noted above over a period of about four weeks, definite changes in behavior were evident. […] At home, they retreated from a situation triggering the event to their room, where they remained quiet.
Each of the three episodes occurred at school. In one episode, the patient was working on a computer and refused to give up their work station when their allotted time had been used up. […] A second episode was triggered when the patient was asked to make up a class they had missed. They refused to go to the class but voluntarily moved themself to a “cooling room” to allow their temper to subside. They again, when so instructed, walked to the school office without being physically coerced. In a third episode, the patient was asked to leave the classroom because they would not stop talking during a quiet time. In this case, there was a limited degree of acting out in that, while sitting in a chair, they kicked a desk which was knocked over. They then allowed themself to be escorted by police officers to the school office without being physically coerced. In the office, they kicked another desk and was taken by ambulance to a children's hospital for evaluation.

[2] = under treatment, approximately two and one-half months

## CCOC(=O)[C@H](CCc1ccccc1)N[C@@H](C)C(=O)N1CCC[C@H]1C(=O)O [enalapril]
Central nervous system
  incidence of dream abnormality: less than one

## NCCCC[C@H](N[C@@H](CCc1ccccc1)C(=O)O)C(=O)N1CCC[C@H]1C(=O)O [lisinopril]
[1]; lisinopril 10 mg per day oral, about four weeks
  violent outburst during episodes: without violent outburst
[1]; lisinopril 10 mg per day oral, about four weeks, prior to medication approximately twenty minutes per episode
  duration of episodes of rage and/or violent behavior: five to ten
[1]; lisinopril 10 mg per day oral, about four weeks, prior to medication two to four episodes per week
  frequency of episodes: approximately one
[1]; [2]
  blood pressure during the three most marked temper-related episodes: 128/64
  degree of violence in episodes compared to behavior prior to treatment: significantly reduced
  dilation of pupils: no noticeable dilation of pupils

## CCC(=O)O[C@@H](O[P@](=O)(CCCCc1ccccc1)CC(=O)N1C[C@H](C2CCCCC2)C[C@H]1C(=O)O)C(C)C [fosinopril]
Central nervous system
  incidence of behavior change: less than one
  incidence of memory disturbance: less than one
  incidence of mood change: less than one

## COC(=O)C(c1ccccc1)C1CCCCN1 (stereo not shown) [methylphenidate]
[1]
  relief of TROBD by prior treatments: ineffective to provide adequate relief

## C[C@H](N)Cc1ccccc1 [dextroamphetamine]
[1]
  relief of TROBD by prior treatments: ineffective to provide adequate relief

## CCOC(=O)[C@H](CCc1ccccc1)N[C@@H](C)C(=O)N1Cc2cc(OC)c(OC)cc2C[C@H]1C(=O)O [moexipril]
Central nervous system
  incidence of mood change: less than one
